Measured values taken from patent publication US20260091030A1, “HIGH-DOSE NALOXONE FORMULATION” (SRI INTERNATIONAL, priority 2022, published 2026).

Legend:
[1] = Initial pH stability of Naloxone hydrochloride in 10 mM buffers pH 3.0-10.6, 7 days (concentration, pH, Noroxymorphone by HPLC); assay type: physicochemical
Method: FIG. 3 is a graph that depicts the concentration of Naloxone in various buffers at t=0 and t=7. The t=7 represents samples stored at either 40° C. or 60° C. for up to 7 days. […] The 15 mg/ml was chosen for pH stability studies and a final formulation of Naloxone is planned to be at 10 mg/ml strength. The maximum possible solubility of drug substance at various buffers will be performed in a “pH solubility” study. […] Naloxone precipitated in solution maintained at pH 7.4-10.6. The glycine-sodium hydroxide buffer system fared slightly better, however not as well as the buffers that maintained pH at 3.0-6.5. It is likely that buffer strength higher than 10 mM is required for pH 7.0-11 buffer systems. […] Based on the pKa values, solubility of Naloxone is expected to be higher at lower pH conditions.
FIG. 4 is a graph that depicts the change in pH of Naloxone in various buffers t=0 and t=7. The t=7 represents samples stored at either 40° C. or 60° C. for up to 7 days. FIG. 4 follows the change in pH for the buffered naloxone samples as a function of time and temperature of storage. It appears that higher pH instability and higher temperature degradations are concerns for Naloxone formulations. Optimum buffering of Naloxone appears to occur at pH 3-4.6; at the molarity tested.
FIG. 5 is a graph that depicts pH-stability of Naloxone after 7 days at room temperature by showing Naloxone and Noroxymorphone concentrations in various buffers assayed by HPLC. Temperature and duration of sample storage are at ambient temperature for 7 days.
FIG. 6 is a graph that depicts pH-stability of Naloxone after 7 days at 40° C. and 75% relative humidity by showing Naloxone and Noroxymorphone concentrations in various buffers assayed by HPLC. Temperature and duration of sample storage are at 40° C. and 75% relative humidity for 7 days. FIG. 6 follows up on the conclusions drawn from the experiment conducted that underlies FIG. 5. Raising the temperature incudes greater formation of Noroxymorphone, and this effect is more pronounced in formulations with a higher pH.
FIG. 7 is a graph that depicts pH-stability of Naloxone after 7 days at 60° C. by showing Naloxone and Noroxymorphone concentrations in various buffers assayed by HPLC. Temperature and duration of sample storage are at 60° C. and humidity was not maintained for 7 days. At even higher temperatures, Noroxymorphone was detected in all formulations across all respective pHs.
Buffers used in intramuscular formulations range from 1-100 mM, but lower molar strengths are known to cause less myotoxicity resulting in less “pain” at the site of injection (Napaporn et al., Pharm. Dev. Technol. 5(1): 123-30 (2000). For the purpose of these initial pH stability experiment, a buffer strength of 10 mM was chosen. Buffers tested ranged from pH 3.0-10.6. Intramuscular formulations below pH 3.0 are extremely rare, owing to excessive acidity which can cause a burning sensation. Table 1 lists the various buffer systems used for this study.
Buffers were created and mixed to a concentration of 10 mM with the pH stabilized. […] Buffers tested ranged from pH 3.0-10.6. Intramuscular formulations below pH 3.0 are rare due to discomfort associated with the injection site.

[2] = pH-stability with and without buffering agents under nitrogen gas overlay / excipient compatibility study; assay type: physicochemical
Method: FIG. 16 is a graph showing pH fluctuations in samples under nitrogen gas overlay, specifically change in pH of Naloxone solutions in water and buffers at pH 3.0 and 4.6 on Day 0 and Day 7. The Day 7 represents samples stored at either room temperature, 40° C. and 75% relative humidity or 60° C. or 25° C. and 60% relative humidity (in amber vials) for up to 7 days.
Samples prepared for pH-Stability of naloxone with and without buffering agents (citrate and acetate at pH 3.0 and pH 4.6 respectively) under nitrogen gas overlay were left at 40° C.±2° C./75%±5% relative humidity (RH) and at 60° C. for a total of 5 weeks for this excipient compatibility study. A stability storage chamber was used for 40° C.±2° C./75%±5% while a regular oven was used for the 60° C. samples. Briefly, naloxone samples were prepared in 20 ml of water for injection or freshly prepared 10 mM citrate buffer and/or acetate buffer in 25 ml volumetric flask. […] The pH of the naloxone solutions was adjusted to 3.0 and 4.6 with 0.1N HCl solution. Samples were diluted up to the 25 ml mark with water for injection or citrate buffer pH 3.0 or acetate buffer pH 4.6. These naloxone solutions were filtered using 0.22 μm, 13 mm, PVDF (Pall scientific) syringe filters and pH of the filtrate was measured. The filtered solution was aliquoted into 2.0 ml clear, sterile, Type-I glass vials and closed with 13 mm red rubber closures crimped with aluminum blue flip cap seals. All vials were overlaid with nitrogen gas (filtered with 0.22u PTFE, Acro®50 Vent In-Line filter, Pall scientific) before sealing and stored at 40° C.±2° C./75%±5% relative humidity (RH) or 60° C. for 5 weeks. These samples were evaluated for pH, assay and impurities of naloxone at intervals of T=0, 1 week and T=5 weeks. […] These samples were analyzed at T=2 weeks and T=5 weeks for pH, assay and impurities for naloxone. […]
The pH and assay of naloxone for excipient compatibility samples stored at 40° C.±2° C./75%±5% RH and 60° C. on T=0-day, 1 week and T=5 weeks were evaluated.

physchem = conditions: thermodynamic from solid

C=CCN1CC[C@]23c4c5ccc(O)c4O[C@H]2C(=O)CC[C@@]3(O)[C@H]1C5.Cl [Naloxone hydrochloride, (−)-17-Allyl-4, 5 α-epoxy-3,14-dihydroxymorphinan-6-one hydrochloride]
dissolution at 15 mg/ml in buffer ([1]; 10 mM buffer systems at pH 7.4 (sodium phosphate monobasic/dibasic) and pH 10.6 (carbonate-bicarbonate)): did not dissolve efficiently
pH of optimum buffering ([1]; 10 mM buffers, up to 7 days at 40° C. or 60° C.): 3-4.6
Noroxymorphone detected by HPLC ([1]; 7 days at ambient temperature, pH 7.4 sodium phosphate and pH 10 glycine buffer versus pH lower than 6.5): Greater amounts of Noroxymorphone were detected
Noroxymorphone formation by HPLC ([1]; citrate buffer at pH 3, 7 days at 60° C.): significantly less Noroxymorphone formation than all of the other formulations tested
precipitation in solution ([1]; solution maintained at pH 7.4-10.6): precipitated
change in pH ([2]; 10 mM citrate and acetate buffers at pH 3.0 and 4.6, nitrogen overlay, seven days at room temperature, 40° C./75% RH, 60° C., 25° C./60% RH (amber vials)): no change in pH
change in pH ([2]; without buffers at pH 3.0, nitrogen overlay, seven days at room temperature, 40° C./75% RH, 60° C., 25° C./60% RH (amber vials)): no change in pH
change in pH ([2]; without buffers at pH 4.6, nitrogen overlay, seven days): increased
solubility (physchem; pH 5, aqueous buffer): 204 mg/mL
solubility (physchem; pH 10, aqueous buffer): 90.5 mg/mL
